Type in all cases: cell-based
The test system of assay [1] is TNF-α. Kind of assay: Whole blood cell culture assay, LPS-induced TNF-α release. The conditions noted are these: Homo sapiens, at a concentration of 10 μM, LPS 1 μg/ml, 4.5 hours. The method, then:
TNF-α production by lipopolysaccharide (LPS) in whole blood was measured according to the method described in literature (J. Immunol. Methods, 1991, 139, 233-240).
Blood was collected from healthy donors into potassium EDTA vacutainer tubes (Becton Dickinson) and diluted with RPMI (Roswell Park Memorial Institute) 1640 culture medium (Gibco BRL, Pasley, UK) containing 100 U/ml penicillin and 100 μg/ml streptomycin, (100× solution, Sigma Chemical Co. St Louis, Mo.) with no added serum. The white blood cell count was adjusted to 1×10^6 cells/ml and 100 it/well of the diluted blood was transferred into 96-well culture plates. Following cell plating, 79 μl of culture medium and 1 μl of the test compounds (final concentration 1 μM and 10 μM) dissolved in DMSO was added to the cells. The final concentration of DMSO was adjusted to 0.5%. 1 μl of vehicle (0.5% DMSO) was used as control. Rolipram (300 μM) was used as a standard compound. The plates were incubated for 30 minutes at 37° C. in an atmosphere of 5% CO2. Finally, 20 μl (10 μg/ml) per well of LPS (Escherchia coli 0127:B8, Sigma Chemical Co. St. Louis, Mo.) was added, for a final concentration of 1 μg/ml. Plates were incubated at 37° C. for 4.5 hours in an atmosphere of 5% CO2. Supernatants were harvested and assayed for TNF-α by ELISA as described by the manufacturer (OptiEIA ELISA sets, BD Biosciences, Pharmingen). Percent inhibition of TNF-α release in comparison to the control was calculated.

The test system of assay [2] is TNF-α. Kind of assay: hPBMCs assay, LPS-induced TNF-α. The conditions noted are these: Homo sapiens, LPS 1 μg/ml, 5 hours, ELISA. As to the method:
(§1) TNF-α production by lipopolysaccharides (LPS) in hPBMCs was measured according to the method described in literature (Physiol. Res., 2003, 52, 593-598). Blood was collected from healthy donors into Potassium EDTA vacutainer tubes (BD vacutainer). The PBMCs were isolated using gradient centrifugation in Histopaque-1077 solution (Sigma). Isolated PBMC were suspended in RPMI 1640 culture medium (Sigma-Aldrich Fine Chemicals, USA), containing 10% fetal bovine serum (FBS) (JRH, USA), 100 U/ml penicillin (Sigma Chemical Co. St Louis, Mo.) and 100 μg/ml streptomycin (Sigma Chemical Co. St Louis, Mo.). The cell concentration was adjusted to 1×10^6 cells/ml. The viability as determined by trypan blue dye exclusion was uniformly ≧98%. The cell suspension (100 μl) was added to the wells of a 96-well culture plate. Following cell plating, 79 μl of the culture medium and 1 μl of eight different concentrations of the test compounds (final concentration 0.03, 0.1, 0.3, 1, 3, 10, 30, 100 μg/ml) dissolved in DMSO were added to the cells. The final concentration of DMSO was adjusted to 0.5%. The vehicle (0.5 DMSO) was used as control. Rolipram (300 μM) was used as a standard compound. The plates were incubated for 30 minutes at 37° C. in an atmosphere of 5% CO2. Finally, 20 μl (10 μg/ml) per well of LPS, (Escherchia coli 0127:B8, Sigma Chemical Co., St. Louis, Mo.) was added, for a final concentration of 1 µg/ml. The plates were incubated at 37° C. for 5 hours in an atmosphere of 5% CO2. To assess the cytotoxic effect of the test compounds, the cellular viability test was performed using MTS (3-(4,5-dimethylthiazol-2-yl)-5-(3-carboxymethoxyphenyl)-2-(4-sulfonyl)-2H-tetrazolium) reagent after 5 hours of incubation. Supernatants were harvested and assayed for TNF-α, interleukin-1β (IL-1β), interleukin-6 (IL-6) and interleukin-8 (IL-8) by ELISA as described by the manufacturer. (OptiEIA ELISA sets, BD Biosciences, Pharmingen). […]
On the technique in general: An ELISA detects its analyte on a solid surface through an enzyme-linked reagent.

For the next assay, the system named is IL-1β. Kind of assay: hPBMCs assay, LPS-induced IL-1β. Particulars: Homo sapiens, LPS 1 μg/ml, 5 hours, ELISA. As to the method:
as §1

The next assay concerns IL-6. Kind of assay: hPBMCs assay, LPS-induced IL-6. Particulars: Homo sapiens, LPS 1 μg/ml, 5 hours, ELISA. As to the method:
as §1

A further assay concerns IL-8. Description: hPBMCs assay, LPS-induced IL-8. Particulars: Homo sapiens, LPS 1 μg/ml, 5 hours, ELISA. The method, then:
as §1

Each structure is given as a SMILES string. Counter-ions that a name gives are not always drawn.

The inhibition is the relative decrease from the control value, in per cent. Low values mean little suppression, high ones strong suppression. The term IC50 denotes the concentration needed to halve the response being measured. Take `COc1cc(OC)c(C2CCN(C)C2CO)c(O)c1C(=O)C=Cc1ccccc1Cl` (racemic) [Example 20, (+/−)3-(2-Chlorophenyl)-1-(2-hydroxy-3-(2-(hydroxymethyl)-1-methylpyrrolidin-3-yl)-4,6-dimethoxy-phenyl)prop-2-en-1-one hydrochloride]: the inhibition at 10 µM with TNF-α [1] worked out at 66%. The IC50 in the assay on TNF-α [2] came out at 900 nM; in the assay on IL-1β it was 800 nM; in the assay with IL-6, 4900 nM; in the assay on IL-8, 6500 nM.
On the same counts, the results for `COc1cc(OC)c(C2CCN(C)C2CO)c(O)c1C(=O)C=Cc1cccc(Br)c1` (racemic) [Example 21, (+/−)3-(3-Bromophenyl)-1-(2-hydroxy-3-(2-(hydroxymethyl)-1-methylpyrrolidin-3-yl)-4,6-dimethoxy-phenyl)prop-2-en-1-one] are 61%, 800 nM, 200 nM, 2300 nM and 5200 nM.
Regarding `COc1cc(OC)c(C2CCN(C)C2CO)c(O)c1C(=O)C=Cc1cccc(C)c1` (racemic) [Example 23, (+/−)1-(2-Hydroxy-3-(2-(hydroxymethyl)-1-methylpyrrolidin-3-yl)-4,6-dimethoxy-phenyl)-3-m-tolylprop-2-en-1-one], the inhibition at 10 µM in the assay with TNF-α [1] is 32%.
Take `COc1cc(OC)c(C2CCN(C)C2CO)c(O)c1C(=O)C=Cc1cccc([N+](=O)[O-])c1` (racemic) [Example 25, (+/−)1-(2-Hydroxy-3-(2-(hydroxymethyl)-1-methylpyrrolidin-3-yl)-4,6-dimethoxy-phenyl)-3-(3-nitrophenyl)prop-2-en-1-one]: the inhibition at 10 µM in the assay on TNF-α [1] is 68%. Also, the IC50 in the assay on TNF-α [2] turned out to be 500 nM; with IL-1β, 100 nM; in the assay on IL-6, 2500 nM; with IL-8, 5400 nM.
Turning to `COc1cc(OC)c(C2CCN(C)C2CO)c(O)c1C(=O)C=Cc1ccc(Cl)cc1` (racemic) [Example 28, (+/−)3-(4-Chlorophenyl)-1-(2-hydroxy-3-(2-(hydroxymethyl)-1-methylpyrrolidin-3-yl)-4,6-dimethoxy-phenyl)prop-2-en-1-one], testing at 10 µM in the assay on TNF-α [1] gave an inhibition of 30%.
The molecule `COc1cc(OC)c(C2CCN(C)C2CO)c(O)c1C(=O)C=Cc1ccc(F)cc1` (racemic) [Example 29, (+/−)3-(4-Fluorophenyl)-1-(2-hydroxy-3-(2-(hydroxymethyl)-1-methylpyrrolidin-3-yl)-4,6-dimethoxy-phenyl)prop-2-en-1-one] showed an inhibition at 10 µM with TNF-α [1] of 31%.
For `COc1cc(OC)c(C2CN(C)C(=O)C2CO)c(O)c1C(=O)C=Cc1ccccc1Cl` (racemic) [Example 39, (+/−)4-(3-(3-(2-Chlorophenyl)acryloyl)-2-hydroxy-4,6-dimethoxy-phenyl)-3-(hydroxymethyl)-1-methylpyrrolidin-2-one], the inhibition at 10 µM with TNF-α [1] turned out to be 75%.
In the case of `COc1cc(OC)c(C2CCN(C)C2CO)c(O)c1C(=O)C=Cc1ccc(C)o1` (racemic) [Example 45, (+/−)1-(2-Hydroxy-3-(2-(hydroxymethyl)-1-methylpyrrolidin-3-yl)-4,6-dimethoxy-phenyl)-3-(5-methylfuran-2-yl)prop-2-en-1-one], in the assay with TNF-α [1], testing at 10 µM gave an inhibition of 54%.
With `COc1cc(OC)c(C2CCN(C)C2CO)c(O)c1C(=O)C=Cc1cccnc1` (racemic) [Example 48, (+/−)1-(2-Hydroxy-3-(2-(hydroxymethyl)-1-methylpyrrolidin-3-yl)-4,6-dimethoxy-phenyl)-3-(pyridin-3-yl)prop-2-en-1-one], the inhibition at 10 µM in the assay on TNF-α [1] is 61%.

(Values after US20130203815A1, “CYTOKINE INHIBITORS” (PIRAMAL ENTERPRISES LIMITED, priority 2010, published 2013).)
